Test results as given in ChEMBL document CHEMBL2010735, “Bioactive hydroanthraquinones and anthraquinone dimers from a soft coral-derived Alternaria sp. fungus” (J Nat Prod, 2012).
pIC50: −log10 of the molar value.

Test system: HepG2
Experiment: Cytotoxicity against human HepG2 cells after 6 days by MTT assay
Type: functional, cell-based
Settings: HepG2, 144 h

**Q.** With COc1cc(O)c2c(c1)[C@H](O)[C@H]1C[C@](C)(O)[C@@H](O)C[C@@H]1C2=O (relative stereo) [TETRAHYDROALTERSOLANOL E] as the molecule, how does the pIC50 read?
**A.** Its pIC50 is under 4.00.

**Q.** With COc1cc(O)c2c(c1)C(=O)c1cc(C)c(O)c(-c3c(OC)cc4c(c3O)C(=O)C3=C(C4=O)[C@@H](O)[C@](C)(O)[C@H](O)C3)c1C2=O [ALTERPORRIOL P] as the molecule, how does the pIC50 read?
**A.** Its pIC50 is 4.70.

**Q.** With COc1cc(O)c2c(c1)C(=O)C1=C(C[C@@H](O)[C@@](C)(O)C1)C2=O [ALTERSOLANOL B] as the molecule, how does the pIC50 read?
**A.** Its pIC50 is under 4.00.

**Q.** With COc1cc(O)c2c(c1)[C@H](O)[C@@H]1[C@H](C[C@@H](O)[C@@](C)(O)[C@@H]1O)C2=O [ALTERSOLANOL L] as the molecule, how does the pIC50 read?
**A.** Its pIC50 is under 4.00.

**Q.** With COc1cc(O)c2c(c1)[C@H](O)[C@@H]1[C@@H](C2=O)[C@H](O)[C@@H](O)[C@@](C)(O)[C@@H]1O [AMPELANOL] as the molecule, how does the pIC50 read?
**A.** The pIC50 was under 4.00.

**Q.** With COc1cccc2c1C(=O)c1c(O)c3c(c(O)c1C2=O)C[C@@](O)(C(=O)CO)C[C@@H]3O[C@H]1C[C@H](N)[C@@H](O)[C@H](C)O1 [EPIRUBICIN] as the molecule, how does the pIC50 read?
**A.** The pIC50 was 5.78.

**Q.** With COc1cc(O)c2c(c1)[C@H](O)[C@H]1C[C@](C)(O)[C@H](O)C[C@@H]1C2=O [TETRAHYDROALTERSOLANOL B] as the molecule, how does the pIC50 read?
**A.** Its pIC50 is under 4.00.

Test system: not listed separately
Experiment: Cytotoxicity against human MCF7/ADR cells after 6 days by MTT assay
Type: functional, cell-based
Settings: NCI/ADR-RES, 144 h

**Q.** With COc1cc(O)c2c(c1)[C@H](O)[C@H]1C[C@](C)(O)[C@@H](O)C[C@@H]1C2=O (relative stereo) [TETRAHYDROALTERSOLANOL E] as the molecule, how does the pIC50 read?
**A.** Its pIC50 is under 4.00.

**Q.** With COc1cc(O)c2c(c1)C(=O)c1cc(C)c(O)c(-c3c(OC)cc4c(c3O)C(=O)C3=C(C4=O)[C@@H](O)[C@](C)(O)[C@H](O)C3)c1C2=O [ALTERPORRIOL P] as the molecule, how does the pIC50 read?
**A.** The pIC50 was 4.64.

**Q.** With COc1cc(O)c2c(c1)C(=O)C1=C(C[C@@H](O)[C@@](C)(O)C1)C2=O [ALTERSOLANOL B] as the molecule, how does the pIC50 read?
**A.** Its pIC50 is under 4.00.

**Q.** With COc1cc(O)c2c(c1)[C@H](O)[C@@H]1[C@H](C[C@@H](O)[C@@](C)(O)[C@@H]1O)C2=O [ALTERSOLANOL L] as the molecule, how does the pIC50 read?
**A.** The pIC50 was under 4.00.

**Q.** With COc1cc(O)c2c(c1)[C@H](O)[C@@H]1[C@@H](C2=O)[C@H](O)[C@@H](O)[C@@](C)(O)[C@@H]1O [AMPELANOL] as the molecule, how does the pIC50 read?
**A.** The pIC50 was under 4.00.

**Q.** With COc1cccc2c1C(=O)c1c(O)c3c(c(O)c1C2=O)C[C@@](O)(C(=O)CO)C[C@@H]3O[C@H]1C[C@H](N)[C@@H](O)[C@H](C)O1 [EPIRUBICIN] as the molecule, how does the pIC50 read?
**A.** The pIC50 was 5.78.

**Q.** With COc1cc(O)c2c(c1)[C@H](O)[C@H]1C[C@](C)(O)[C@H](O)C[C@@H]1C2=O [TETRAHYDROALTERSOLANOL B] as the molecule, how does the pIC50 read?
**A.** The pIC50 was under 4.00.

Test system: not listed separately
Experiment: Cytotoxicity against human Hep3B cells after 6 days by MTT assay
Type: functional, cell-based, Hep 3B2
Settings: 144 h

**Q.** With COc1cc(O)c2c(c1)[C@H](O)[C@H]1C[C@](C)(O)[C@@H](O)C[C@@H]1C2=O (relative stereo) [TETRAHYDROALTERSOLANOL E] as the molecule, how does the pIC50 read?
**A.** Its pIC50 is under 4.00.

**Q.** With COc1cc(O)c2c(c1)C(=O)c1cc(C)c(O)c(-c3c(OC)cc4c(c3O)C(=O)C3=C(C4=O)[C@@H](O)[C@](C)(O)[C@H](O)C3)c1C2=O [ALTERPORRIOL P] as the molecule, how does the pIC50 read?
**A.** The pIC50 was 4.68.

**Q.** With COc1cc(O)c2c(c1)C(=O)C1=C(C[C@@H](O)[C@@](C)(O)C1)C2=O [ALTERSOLANOL B] as the molecule, how does the pIC50 read?
**A.** The pIC50 was under 4.00.

**Q.** With COc1cc(O)c2c(c1)[C@H](O)[C@@H]1[C@H](C[C@@H](O)[C@@](C)(O)[C@@H]1O)C2=O [ALTERSOLANOL L] as the molecule, how does the pIC50 read?
**A.** The pIC50 was under 4.00.

**Q.** With COc1cc(O)c2c(c1)[C@H](O)[C@@H]1[C@@H](C2=O)[C@H](O)[C@@H](O)[C@@](C)(O)[C@@H]1O [AMPELANOL] as the molecule, how does the pIC50 read?
**A.** The pIC50 was under 4.00.

**Q.** With COc1cccc2c1C(=O)c1c(O)c3c(c(O)c1C2=O)C[C@@](O)(C(=O)CO)C[C@@H]3O[C@H]1C[C@H](N)[C@@H](O)[C@H](C)O1 [EPIRUBICIN] as the molecule, how does the pIC50 read?
**A.** The pIC50 was 6.02.

**Q.** With COc1cc(O)c2c(c1)[C@H](O)[C@H]1C[C@](C)(O)[C@H](O)C[C@@H]1C2=O [TETRAHYDROALTERSOLANOL B] as the molecule, how does the pIC50 read?
**A.** The pIC50 was under 4.00.

Test system: Porcine reproductive and respiratory syndrome virus
Experiment: Antiviral activity against Porcine reproductive and respiratory syndrome virus infected in CRL11171 cells assessed as inhibition of viral replication by RT-PCR analysis
Type: functional, cell-based
Settings: not given

**Q.** With COc1cc(O)c2c(c1)C(=O)c1cc(C)c(O)c(-c3c(OC)cc4c(c3O)C(=O)c3cc(O)c(C)cc3C4=O)c1C2=O [ALTERPORRIOL Q] as the molecule, how does the pIC50 read?
**A.** The pIC50 was 4.66.

Test system: PC-3
Experiment: Cytotoxicity against human PC3 cells after 6 days by MTT assay
Type: functional, cell-based
Settings: PC-3, 144 h

**Q.** With COc1cc(O)c2c(c1)[C@H](O)[C@H]1C[C@](C)(O)[C@@H](O)C[C@@H]1C2=O (relative stereo) [TETRAHYDROALTERSOLANOL E] as the molecule, how does the pIC50 read?
**A.** Its pIC50 is under 4.00.

**Q.** With COc1cc(O)c2c(c1)C(=O)c1cc(C)c(O)c(-c3c(OC)cc4c(c3O)C(=O)C3=C(C4=O)[C@@H](O)[C@](C)(O)[C@H](O)C3)c1C2=O [ALTERPORRIOL P] as the molecule, how does the pIC50 read?
**A.** Its pIC50 is 5.19.

**Q.** With COc1cc(O)c2c(c1)C(=O)C1=C(C[C@@H](O)[C@@](C)(O)C1)C2=O [ALTERSOLANOL B] as the molecule, how does the pIC50 read?
**A.** The pIC50 was under 4.00.

**Q.** With COc1cc(O)c2c(c1)[C@H](O)[C@@H]1[C@H](C[C@@H](O)[C@@](C)(O)[C@@H]1O)C2=O [ALTERSOLANOL L] as the molecule, how does the pIC50 read?
**A.** Its pIC50 is under 4.00.

**Q.** With COc1cc(O)c2c(c1)[C@H](O)[C@@H]1[C@@H](C2=O)[C@H](O)[C@@H](O)[C@@](C)(O)[C@@H]1O [AMPELANOL] as the molecule, how does the pIC50 read?
**A.** The pIC50 was under 4.00.

**Q.** With COc1cccc2c1C(=O)c1c(O)c3c(c(O)c1C2=O)C[C@@](O)(C(=O)CO)C[C@@H]3O[C@H]1C[C@H](N)[C@@H](O)[C@H](C)O1 [EPIRUBICIN] as the molecule, how does the pIC50 read?
**A.** Its pIC50 is 6.34.

**Q.** With COc1cc(O)c2c(c1)[C@H](O)[C@H]1C[C@](C)(O)[C@H](O)C[C@@H]1C2=O [TETRAHYDROALTERSOLANOL B] as the molecule, how does the pIC50 read?
**A.** The pIC50 was under 4.00.

Test system: HCT-116
Experiment: Cytotoxicity against human HCT116 cells after 6 days by MTT assay
Type: functional, cell-based
Settings: HCT-116, 144 h

**Q.** With COc1cc(O)c2c(c1)[C@H](O)[C@H]1C[C@](C)(O)[C@@H](O)C[C@@H]1C2=O (relative stereo) [TETRAHYDROALTERSOLANOL E] as the molecule, how does the pIC50 read?
**A.** The pIC50 was under 4.00.

**Q.** With COc1cc(O)c2c(c1)C(=O)c1cc(C)c(O)c(-c3c(OC)cc4c(c3O)C(=O)C3=C(C4=O)[C@@H](O)[C@](C)(O)[C@H](O)C3)c1C2=O [ALTERPORRIOL P] as the molecule, how does the pIC50 read?
**A.** Its pIC50 is 5.07.

**Q.** With COc1cc(O)c2c(c1)C(=O)C1=C(C[C@@H](O)[C@@](C)(O)C1)C2=O [ALTERSOLANOL B] as the molecule, how does the pIC50 read?
**A.** The pIC50 was under 4.00.

**Q.** With COc1cc(O)c2c(c1)[C@H](O)[C@@H]1[C@H](C[C@@H](O)[C@@](C)(O)[C@@H]1O)C2=O [ALTERSOLANOL L] as the molecule, how does the pIC50 read?
**A.** The pIC50 was under 4.00.

**Q.** With COc1cc(O)c2c(c1)[C@H](O)[C@@H]1[C@@H](C2=O)[C@H](O)[C@@H](O)[C@@](C)(O)[C@@H]1O [AMPELANOL] as the molecule, how does the pIC50 read?
**A.** The pIC50 was under 4.00.

**Q.** With COc1cccc2c1C(=O)c1c(O)c3c(c(O)c1C2=O)C[C@@](O)(C(=O)CO)C[C@@H]3O[C@H]1C[C@H](N)[C@@H](O)[C@H](C)O1 [EPIRUBICIN] as the molecule, how does the pIC50 read?
**A.** The pIC50 was 6.09.

**Q.** With COc1cc(O)c2c(c1)[C@H](O)[C@H]1C[C@](C)(O)[C@H](O)C[C@@H]1C2=O [TETRAHYDROALTERSOLANOL B] as the molecule, how does the pIC50 read?
**A.** The pIC50 was under 4.00.
